SMILES strings stand for the structures. In brackets after ≈: the same amount, converted by molar mass.

Data set [1] relates to human T cells. The data set can be described thus: Cell numbers of PHA-stimulated human T cells over 120 hrs. As to conditions: 10 μg/ml PHA, 0-120 hrs; 250 μM vesnarinone, 15 nM aphidicolin or 100 μM deferoxamine. It counts as cell-based. As for the experimental part: Next, the effects of the above-described drugs on cell proliferation were evaluated over a period of 120 hrs.

For data set [2], the system named is ZEBRA. The experiment in a line: Flow cytometric detection of ZEBRA in Akata cells. The class given is cell-based, Epstein-Barr virus. As to conditions: 3 hrs after anti-IgG; vesnarinone 0-100 μg/ml. As for the experimental part: The human Burkitt's lymphoma cell line, Akata, provided by Dr. Kenzo Takada (Takada, Int. J. Cancer, 33:27-32 (1984); and Takada et al, Virus Genes, 5:147-156 (1991)), was cultured at 37° C. in RPMI 1640 medium supplemented with 15% (v/v) heat-inactivated FCS, and 20 μg/ml gentamicin.
The cell progression of Akata cells was arrested by culturing of the cells for 96 hrs in the presence of 1.5% (y/v) DMSO (Sigma, St. Louis, Mo.) (Sawai et al, Exp. Cell Res., 187:4-10 (1990); and Takase et al, Cell Growth Differ., 3:515-521 (1992)).
1 hr after transfer (release from DMSO), a goat F(ab')2 fragment of anti-human IgG antibody (Organon Teknika, Durham, N.C.) was added at a concentration of 50 μg/ml to induce productive EBV replication (Takagi et al, Virology, 185:309-315 (1991)). […]
For flow cytometric detection of ZEBRA, after a 60 min fixation with 70% (v/v) ethanol at 4° C., 10^6 cells were centrifuged, and washed with PBS. […] The cells were washed with PBS again, and analyzed by flow cytometry (Epics Profile, Coulter), monitoring fluorescence (520-540 nm) in a logarithmic scale with 488 nm excitation. The positivity for ZEBRA was calculated by a non-linear least squares method (Takase et al, J. Immunol. Methods, 118:129-138 (1989)).
A general note: In flow cytometry, cells or beads pass a laser one at a time.

The subject of data set [3] is thymidine kinase. The data set can be described thus: Thymidine kinase activity in extracts of treated Akata cells. It counts as cell-based. As to conditions: 100 μg/ml vesnarinone. The protocol:
The pellet of frozen cells was suspended in 100 μl of kinase extraction buffer comprising 50 mM Tris (pH 8.0), 50 mM KCl, 1.0 mM MgCl2, 1.0 mM ATP, 1.0 mM DTT, 5.0% (v/v) glycerol, 80 μg/ml aprotinin, 40 μM leupeptin and 1.0 mM PMSF, and incubated on ice for 30 min after a brief sonication. The nuclei were removed by high speed centrifugation for 15 min and the supernatant (kinase extract) was aliquoted and stored at -70° C. The protein concentration of the kinase extract (about 4.0 mg/ml) was determined using standard Bradford Reagent (Bio-Rad Protein Assay Kit, Bio-Rad Laboratories, Hercules, Calif.), with BSA as a protein standard.
5.0 μl of the kinase extract was incubated at 37° C. with 35 µl of kinase reaction buffer comprising 150 mM phosphate (pH 7.5), 20 mM ATP, 20 mM MgCl2, 40 mM KCl, 1.0 mM DTT, 10 mM NaF and 20 μM [^3 H]thymidine (6.7 Ci/mmole, ICN) for 5 or 15 min. The reaction was terminated by placing on ice, and an addition of 4.0 μl of 0.5M EDTA (pH 8.0). […]
The amount of phosphorylated [^3 H]thymidine derivatives formed during the reaction was determined by applying the reaction mixtures onto Whatman DE-81 paper filters, which were then washed four times in 1.0 mM ammoniumformate (pH 8.0), and once in ethanol before drying and liquid scintillation counting. […]

The subject of data set [4] is CMV strain AD169. The data set can be described thus: CMV plaque reduction assay in MRC5 cells. The class given is cell-based. As to conditions: Human betaherpesvirus 5, AD169, MRC5, 168 h. As for the experimental part: More specifically, subconfluent monolayers of MRC5 cells (Biowhittaker, Walkersville, Md.) in 12-well tissue culture plates were exposed to a suspension of a 1:500 dilution of stock virus (CMV strain AD169; ATCC No. VR-538) in Eagles Minimal Essential Medium (MEM) supplemented with 2.0% (v/v) fetal bovine serum, for 2 hr at 37° C. to allow for virus absorption. The fluid containing unabsorbed virus was then removed, and the cell layer rinsed with Eagles MEM without serum.
The minimum compound concentration that reduces plaque production by 50% (MIC50) was calculated from single compound assays by using a regression analysis program for semilog curve fitting.
The following formula of additivity, which is appropriate for inhibitors affecting different sites, was used.
On the technique in general: In a plaque reduction assay, fewer plaques than in the control indicate reduced infectivity or spread.

In data set [5] the test system is MRC5 cells. The data set can be described thus: MTT cell viability of MRC5 cells. The class given is cell-based. The protocol: More specifically, 5.0 μg/ml of MTT in Eagles MEM supplemented with 2.0% (v/v) fetal bovine serum was added to each well, and incubated at 37° C. for 6 hr. The cells were then solubilized by adding 30% (w/v) SDS in 0.02N HCl. The cultures were incubated overnight at 37° C. Then, the optical density was measured at 570 nm on a spectrophotometer.

For data set [6], the system named is U937 cells. The data set can be described thus: Intracellular AZT-MP, AZT-DP, AZT-TP in U937 cells by HPLC. Conditions: vesnarinone 75 μM (30 μg/ml); [3H]AZT 2 hr. The protocol: 1.0 ml fractions were collected, and the radioactivity was measured by liquid scintillation. The retention time for AZT and AZT-MP was confirmed using cold AZT and AZT-MP (Sigma) under the same conditions.
Intracellular concentrations of [^3 H]AZT-MP, [^3 H]AZT-DP, and [^3 H]AZT-TP were measured using HPLC as described above.

In data set [7] the test system is primary human T lymphocytes. The experiment in a line: Rapid uptake of [3H]thymidine / [3H]AZT in PHA-activated human T cells. As to conditions: 0-250 μM vesnarinone, 1 min.
Experimental: Human PBMC were obtained by leukopheresis of HIV-1 and HBV Zeronegative healthy donors. Mononuclear cell suspensions were prepared therefrom by Ficoll-Hypaque gradient centrifugation, and the T cells were obtained therefrom by E-rosette enrichment as described by Terada et al, J. Immunol., 147:698-704 (1991).
Then, 1.0 μCi/ml of [^3 H]thymidine (6.7 Ci/mmol) or 1.0 μCi/ml of [^3 H]AZT (14 Ci/mmol) was added, and the mixture was immediately layered on silicone oil/paraffin oil (96:6) in microfuge tubes. […] The water and oil phases were discarded, and radioactivity of the cell pellets was measured using liquid scintillation counting.

Take `COc1ccc(C(=O)N2CCN(c3ccc4c(c3)CCC(=O)N4)CC2)cc1OC` [vesnarinone, 3,4-dihydro-6-[4-(3,4-dimethoxybenzoyl)-1-piperazinyl]-2(1H)-quinoline]: the “cell proliferation (cell number)” value in data set [1] was “inhibited cell proliferation when compared to control cultures, but increases in cell number were nonetheless observed”. Also, the “degree of positivity for ZEBRA” value in data set [2] was “not decreased by vesnarinone at concentrations less than or equal to 10 μg/ml”. For the same compound, in data set [3] (100 μM dTTP in reaction), the “increase in dTTP-resistant thymidine kinase” value was “partially suppressed by vesnarinone treatment”. For the same compound, the “increase in whole thymidine kinase activity in anti-IgG treated cells” value in data set [3] (without dTTP) is reported as “partially inhibited in the presence of vesnarinone”. For the same compound, in data set [4] (read-out: efficacy against CMV plaque formation), the inhibition at 30 µg/mL was found to be 91.5%. Also, the EC50 in data set [4] (single compound assay, regression analysis, read-out: MIC50 (minimum concentration that reduces plaque production by 50%)) stood at 24 µg/mL (≈ 60.7 µM). Besides, the “MTT Cell Viability (% of control)” value was 100 % of control in data set [5] (vesnarinone 3.88 μg/ml alone), 98 % of control in data set [5] (vesnarinone 7.75 μg/ml alone), 98 % of control in data set [5] (vesnarinone 15.5 μg/ml alone) and 90 % of control in data set [5] (vesnarinone 31 μg/ml alone). The “cytotoxicity by MTT” value in data set [5] (vesnarinone 3.88-31 μg/ml, alone or with DHPG 0.625-5.000 μM) is on record as “little or no cytotoxicity was observed”. Also, the “increase of intracellular AZT-DP” value in data set [6] worked out at 45%. In addition, in data set [6], the “increase of intracellular AZT-MP” value is on record as 100%. Moreover, in data set [7], the “uptake of [3H]AZT” value was “the uptake of [^3 H]AZT was not affected by vesnarinone”. The “uptake of [3H]thymidine” value in data set [7] is “inhibits the uptake of [^3 H]thymidine in a dose-dependent manner”.
